One data set deals with LNCaP-AR xenografts. It counts as in vivo. Conditions: for median tumor tripling time: enzalutamide 10 mg/kg, Compound 1 2 mg/kg, vehicle 15 days. How it is done: (§1) FIG. 6 provides: Growth curves of LNCaP-AR xenografts in castrated mice treated daily with vehicle (black, n=5) or 25 mg/kg NU7441 (gray, n=6) (panel A); Fold change in final tumor volume (panel B); Kaplan-Meier curves of freedom from tumor doubling time with vehicle or NU7441 (25 mg/kg) treatment of LNCaP-AR xenograft tumors (panel C); Growth curves of LNCaP-AR xenograft tumors with 5 times weekly oral gavage enzalutamide (10 mg/kg, n=16), Compound 1 (2 mg/kg, n=14), Compound 1+enzalutamide (n=14), or vehicle (n=14) treatment. Bar graph represents change in final tumor volume compared to starting tumor volume (panel D); Kaplan-Meier curves of freedom from tumor tripling with enzalutamide, Compound 1, enzalutamide+Compound 1, or vehicle treatment of LNCaP-AR xenograft tumors (panel E); Expression of select Wnt pathway target genes in human primary prostate tumor explants treated with NU7441 (n=6) or vehicle (panel F); and Representative images of Ki67 immunostaining of human primary prostate tumor explants treated with NU7441 (n=6) or vehicle; Ki67-positive nuclei are indicated with arrows (panel G). All graphs are mean±S.E.M. *=p<0.05 compared to respective control, #=p<0.05 for enzalutamide compared to Compound 1+enzalutamide, **=p<0.01 for Compound 1 compared to vehicle.
(§2) FIG. 10 provides: Body weight measurements of LNCaP-AR xenograft mice after treatment with NU7441 (panel A); Growth curves of VCaP xenograft tumors with various doses of Compound 1 (administered once daily via oral gavage, 5 times per week for 6 weeks) or vehicle (panel B); Body weight measurements of VCaP xenograft mice after treatment with various Compound 1 doses (panel C); and Growth curves of PC3 xenograft tumors treated with Compound 1 or vehicle (panel D). All graphs are mean±S.E.M. *=p<0.05 compared to vehicle.

Data set [1] deals with C4-2 cells. Description: Boyden chamber migration and invasion assay, crystal violet quantification. It counts as cell-based. An excerpt: (§3) FIG. 2 provides: Representative images (200×) and crystal violet quantification of migration (panel A) and invasion (panel B) of C4-2, LNCaP-AR and PC3 cells in Boyden chamber assays after DNAPK knockdown (siRNA) or inhibition (NU7441); C4-2, LNCaP-AR and PC3 cell growth curves after DNAPK inhibition (NU7441) (panel C) or knockdown (siRNA) (panel D); and DNAPK knockdown by siRNA relative to non-targeting (siNTC) control (panel E). *p<0.05, […] compared to respective controls. All graphs are mean±S.D.
(§4) FIG. 4 provides: Expression of Wnt pathway genes after DNAPK knockdown (panel A) or inhibition (NU7441) (panel B) in LNCaP-AR cells; Immunoblot analyses of DNAPK, phospho-DNAPK (pDNAPK), active beta catenin (βcatenin), and cMyc levels in LNCaP-AR and C4-2 cells after DNAPK knockdown (siDNAPK) or inhibition (NU7441) with or without Wnt3A stimulation (panels C-D); Representative images (200×) and crystal violet quantification of LNCaP-AR and C4-2 cell invasion and migration after DNAPK inhibition (NU7441 or Compound 1) with or without Wnt3A stimulation (panel E); and Representative images (200×) and crystal violet quantification of enzalutamide-resistant LNCaP-AR (LNCaP-AR-enza-res) cell invasion and migration after DNAPK inhibition (NU7441 or Compound 1) or continued enzalutamide treatment (Enza) (panel F). All graphs are mean±S.D. *=p<0.05 compared to respective controls. Enza=enzalutamide. Enza-res=enzalutamide resistant. RQ=relative quantity. siNTC=non-targeting siRNA control.

In data set [2] the test system is LNCaP-AR cells. The data set is described as above. It counts as cell-based.
From the text: as §3, §4

The subject of another data set is VCaP xenograft tumors. It counts as in vivo, mice.
From the text: as §2

The test system of a further data set is LNCaP-AR-MDVR cells. In words: Invasion and migration of enzalutamide-resistant LNCaP-AR cells, crystal violet quantification. It counts as cell-based.
From the text: as §4
FIG. 9 provides: Expression of Wnt pathway target genes in LNCaP-AR cells grown in enzalutamide until resistance (LNCaP-AR-enza-res) relative to LNCaP-AR cells grown in vehicle (DMSO) (panel A); and Expression of AR or AR-target genes FKBP5 and KLK3 (PSA) in LNCaP-AR-enza-res cells after treatment with 10 μM enzalutamide (panel B). GAPDH was used as internal reference, bars are mean±S.D. *=p<0.05. RQ=relative quantity.

For the next data set, the system named is PC3 xenograft tumors. Description: PC3 xenograft tumor growth. It counts as in vivo.
From the text: as §2

Data set [3] has as its system Wnt pathway genes in C4-2 cells. In words: Expression of Wnt pathway genes after DNAPK inhibition. It counts as cell-based. The text has this: FIG. 8 provides: Expression of Wnt pathway genes in C4-2 cells after inhibition (NU7441) (panel A) or knockdown (panel B) of DNAPK; and Expression of Notch pathway genes in LNCaP-AR, PC3 and C4-2 cells after knockdown of DNAPK (panel C). GAPDH was used as internal reference, bars are mean±S.D. *=p<0.05. RQ=relative quantity.

The subject of data set [4] is C4-2 cells. In words: Cell growth curves after DNAPK inhibition. It counts as cell-based.
From the text: as §3

Data set [5] relates to LNCaP-AR cells. In words: Cell growth curves after DNAPK inhibition. It counts as cell-based.
From the text: as §3

Data set [6] concerns PC3 cells. In words: Cell growth curves after DNAPK inhibition. It counts as cell-based.
From the text: as §3

Data set [7] deals with TOPFLASH reporter in PC3 cells. Description: TOPFLASH luciferase reporter activity. It counts as cell-based. Conditions: baseline and Wnt3A-induced, normalized to renilla luciferase. The text has this: FIG. 5 provides: Immunoblot analyses of DNAPK, KU70 and LEF1 after DNAPK immunoprecipitation (left), and LEF1 and DNAPK after LEF1 immunoprecipitation (right) in LNCaP-AR cells (panel A); TOPFLASH luciferase reporter activity in PC3 cells after DNAPK inhibition (NU7441) and/or Wnt3A stimulation; activity is normalized to renilla luciferase (panel B); and Representative images (200×) and crystal violet quantification of LNCaP-AR and C4-2 cell invasion and migration after DNAPK, LEF1 or beta catenin (CTNNB1) knockdown by siRNA. *=p<0.05 compared to respective controls, #=p<0.05 compared to Wnt3A (panel C). All graphs are mean±S.D. siNTC=non targeting siRNA control.
(In general: Reporter assays use an easily measured gene product as a stand-in for the process of interest.)

Data set [8] deals with human primary prostate tumor explants. In words: Human primary prostate tumor explants. Conditions: human prostate cancer explants. The protocol:
as §1

Data set [9] has as its system Wnt pathway genes in LNCaP-AR cells. Description: Expression of Wnt pathway genes after DNAPK inhibition. It counts as cell-based.
From the text: as §4

In data set [10] the test system is PC3 cells. Description: Boyden chamber migration and invasion assay, crystal violet quantification. Conditions: PC3 cells (AR-negative). It counts as cell-based.
From the text: as §3

Data set [11] concerns active beta-catenin and cMyc in LNCaP-AR cells. In words: Immunoblot of active beta catenin and cMyc with or without Wnt3A stimulation. It counts as cell-based. Conditions: baseline and Wnt3A-induced.
From the text: as §4
For orientation: In western blotting, separated proteins are transferred to a membrane and probed.

Data set [12] relates to active beta-catenin and cMyc in C4-2 cells. Described as above. Conditions: baseline and Wnt3A-induced. It counts as cell-based.
From the text: as §4

Setting [13] is: C4-2 (CRPC) cells, baseline and Wnt3A-induced.
[14] abbreviates: LNCaP-AR (CRPC) cells, baseline and Wnt3A-induced.

The results in this text go back to patent US20180369241A1, “TREATMENT OF CANCER WITH DNAPK INHIBITORS” (Celgene Corporation, priority 2015, published 2018).

Consider `CCN1C(=O)CNc2ncc(-c3ccc(-c4nc[nH]n4)nc3C)nc21` [Compound 1, 1-ethyl-7-(2-methyl-6-(1H-1,2,4-triazol-3-yl)pyridin-3-yl)-3,4-dihydropyrazino[2,3-b]pyrazin-2(1H)-one], for which the “median tumor tripling time” value in the data set with LNCaP-AR xenografts (5 times weekly oral gavage) is listed as 29.5 days. Moreover, the tumor regression result in the data set with LNCaP-AR xenografts (pre-castrated conditions, 2 mg/kg, 5 times weekly oral gavage, comparator enzalutamide 10 mg/kg) is “significantly better tumor regression compared to enzalutamide”. For the same compound, the invasion result is “abrogated” in the data set with C4-2 cells [1] (setting [13]), “abrogated” in the data set with LNCaP-AR cells [2] (setting [14]) and “significantly reduced” in the data set on LNCaP-AR-MDVR cells. The migration entry in the data set on C4-2 cells [1] (setting [13]) was “abrogated”; with LNCaP-AR cells [2] (setting [14]) it was “abrogated”; with LNCaP-AR-MDVR cells, “significantly reduced”. Moreover, the “toxicity (body weight)” value in the data set with VCaP xenograft tumors (mouse, in vivo, 2 mg/kg) is listed as “non-toxic”. Moreover, the tumor growth result in the data set on VCaP xenograft tumors (various doses, once daily oral gavage, 5 times per week for 6 weeks, best observed at 2 mg/kg) was “dose-dependent reduction”. In addition, in the data set with PC3 xenograft tumors, the “regression of AR-independent PC3 tumors” value is reported as “significant regression”.

On to `CNC(=O)c1ccc(N2C(=S)N(c3ccc(C#N)c(C(F)(F)F)c3)C(=O)C2(C)C)cc1F` [enzalutamide], for which the “median tumor tripling time” value in the data set on LNCaP-AR xenografts (5 times weekly oral gavage) is 23.5 days.

As to `O=c1cc(N2CCOCC2)oc2c(-c3cccc4c3sc3ccccc34)cccc12` [NU7441], the “Wnt pathway genes expression” value in [3] and in [9] was “robust reduction” in each case. Besides, the proliferation result in the data set with C4-2 cells [4], with LNCaP-AR cells [5] and with PC3 cells [6] was “drastically diminished” in each case. For the same compound, the TOPFLASH reporter activity entry in data set [7] is “significantly reduced”. In data set [8], the “Wnt target gene expression” value was “marked reduction”. Moreover, in [8], the “proliferative index, as determined by Ki67 levels” value is reported as “marked reduction”. The “reduction in tumor growth compared to control” value in the data set on LNCaP-AR xenografts (castrated mice, 25 mg/kg daily) amounted to 44%. The compound also gave a relative tumor volume in the data set with LNCaP-AR xenografts (castrated mice, 25 mg/kg daily, fold change in final tumor volume, vehicle 8.57±1.45) of 4.84±1.97. Moreover, the “median tumor doubling time” value in the data set with LNCaP-AR xenografts (castrated mice, 25 mg/kg daily, vehicle 7 days) worked out at 21.5 days. Also, the “toxicity as measured by body weight” value in the data set with LNCaP-AR xenografts (mouse, in vivo) is recorded as “minimal”. The invasion result with C4-2 cells [1] (setting [13]) is “abrogated”; with C4-2 cells [1] (C4-2 cells (AR-positive)), “drastically diminished”; in the data set with LNCaP-AR cells [2] (setting [14]), “abrogated”; with LNCaP-AR cells [2] (LNCaP-AR cells (AR-positive)), “drastically diminished”; with LNCaP-AR-MDVR cells, “significantly reduced”; with PC3 cells [10], “drastically diminished”. For the same compound, the migration result with C4-2 cells [1] (setting [13]) was “abrogated”; in the data set with C4-2 cells [1] (C4-2 cells (AR-positive)), “drastically diminished”; with LNCaP-AR cells [2] (setting [14]), “abrogated”; in the data set on LNCaP-AR cells [2] (LNCaP-AR cells (AR-positive)) it was “drastically diminished”; in the data set on LNCaP-AR-MDVR cells, “significantly reduced”; in the data set with PC3 cells [10] it was “drastically diminished”. The “levels of active beta-catenin” value in [11] and in data set [12] was “reduced” each time. Further, the “levels of cMyc” value in [11] and in data set [12] was “reduced” throughout.
